Earlier results in PMC10486429, “Investigations Using Albumin Binders to Modify the Tissue Distribution Profile of Radiopharmaceuticals Exemplified with Folate Radioconjugates” (Cancers, 2023).
Like-named read-outs stand apart in the source and are kept apart here.

What was measured:
folate receptor (FR) = target: T1, folate receptor (FR) (Homo sapiens, UniProt P15328); set-up: method as in PMID 34251183; conditions: IGROV-1 cells; read-out: KD Value (95% CI); cited from earlier work
T1 construct: endogenous in cells; host or cells: IGROV-1 (human ovarian carcinoma cell line), intact cells on ice
T1 sequence (P15328 25-257): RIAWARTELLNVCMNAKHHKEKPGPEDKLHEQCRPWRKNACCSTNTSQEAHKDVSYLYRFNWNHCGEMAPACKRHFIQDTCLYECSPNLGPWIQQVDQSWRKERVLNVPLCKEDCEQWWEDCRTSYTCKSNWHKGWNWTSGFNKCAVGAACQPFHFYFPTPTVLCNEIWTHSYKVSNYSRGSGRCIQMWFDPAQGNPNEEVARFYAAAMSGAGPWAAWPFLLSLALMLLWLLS

[1] = tested on: KB tumor-bearing athymic nude mice; set-up: method as in earlier work; conditions: cited from earlier work
[2] = set-up: method as in PMID 33063250; conditions: n-octanol/PBS pH 7.4; cited from earlier work
[3] = n-octanol/PBS pH 7.4; cited from earlier work

CN1c2c(nc(N)[nH]c2=O)NC[C@H]1CNc1ccc(C(=O)N[C@@H](CCC(=O)N[C@@H](CCCCNC(=O)CN2CCN(CC(=O)O)CCN(CC(=O)O)CCN(CC(=O)O)CC2)C(=O)N[C@@H](CCCCNC(=O)CCCc2ccc(I)cc2)C(=O)O)C(=O)O)cc1 [[^177Lu]Lu-6R-RedFol-1, metal not drawn]
Kd (folate receptor (FR)): 2.6 nM
Blood, accumulated activity ([1]; 1 h p.i.): 23 ± 3 % IA/g
Bone, accumulated activity ([1]; 1 h p.i.): 2.1 ± 0.3 % IA/g
Intestines, accumulated activity ([1]; 1 h p.i.): 2.9 ± 0.3 % IA/g
Kidneys, accumulated activity ([1]; 1 h p.i.): 8.4 ± 0.8 % IA/g
Liver, accumulated activity ([1]; 1 h p.i.): 3.3 ± 0.3 % IA/g
Lung, accumulated activity ([1]; 1 h p.i.): 10 ± 1 % IA/g
Muscle, accumulated activity ([1]; 1 h p.i.): 1.6 ± 0.2 % IA/g
Salivary glands, accumulated activity ([1]; 1 h p.i.): 5.0 ± 0.3 % IA/g
Spleen, accumulated activity ([1]; 1 h p.i.): 2.6 ± 0.2 % IA/g
Stomach, accumulated activity ([1]; 1 h p.i.): 1.9 ± 0.4 % IA/g
Tumor-to-blood ratio ([1]; 1 h p.i.): 0.46 ± 0.01
Tumor-to-kidney ratio ([1]; 1 h p.i.): 1.3 ± 0.1
Tumor-to-liver ratio ([1]; 1 h p.i.): 3.3 ± 0.2
Blood, accumulated activity ([1]; 4 h p.i.): 17 ± 1 % IA/g
Bone, accumulated activity ([1]; 4 h p.i.): 1.9 ± 0.2 % IA/g
Intestines, accumulated activity ([1]; 4 h p.i.): 2.6 ± 0.7 % IA/g
KB tumor, accumulated activity ([1]; 4 h p.i.): 20 ± 2 % IA/g
Kidneys, accumulated activity ([1]; 4 h p.i.): 12 ± 1 % IA/g
Liver, accumulated activity ([1]; 4 h p.i.): 3.0 ± 0.2 % IA/g
Lung, accumulated activity ([1]; 4 h p.i.): 7.9 ± 1.4 % IA/g
Muscle, accumulated activity ([1]; 4 h p.i.): 1.4 ± 0.1 % IA/g
Salivary glands, accumulated activity ([1]; 4 h p.i.): 5.7 ± 0.5 % IA/g
Spleen, accumulated activity ([1]; 4 h p.i.): 2.2 ± 0.2 % IA/g
Stomach, accumulated activity ([1]; 4 h p.i.): 1.9 ± 0.3 % IA/g
Tumor-to-blood ratio ([1]; 4 h p.i.): 1.2 ± 0.1
Tumor-to-kidney ratio ([1]; 4 h p.i.): 1.7 ± 0.1
Tumor-to-liver ratio ([1]; 4 h p.i.): 6.9 ± 0.7
Blood, accumulated activity ([1]; 24 h p.i.): 5.4 ± 0.9 % IA/g
Bone, accumulated activity ([1]; 24 h p.i.): 0.91 ± 0.22 % IA/g
Intestines, accumulated activity ([1]; 24 h p.i.): 0.80 ± 0.09 % IA/g
KB tumor, accumulated activity ([1]; 24 h p.i.): 47 ± 4 % IA/g
Kidneys, accumulated activity ([1]; 24 h p.i.): 24 ± 4 % IA/g
Liver, accumulated activity ([1]; 24 h p.i.): 1.3 ± 0.2 % IA/g
Lung, accumulated activity ([1]; 24 h p.i.): 3.2 ± 0.6 % IA/g
Muscle, accumulated activity ([1]; 24 h p.i.): 0.82 ± 0.22 % IA/g
Salivary glands, accumulated activity ([1]; 24 h p.i.): 5.2 ± 1.0 % IA/g
Spleen, accumulated activity ([1]; 24 h p.i.): 1.7 ± 0.1 % IA/g
Stomach, accumulated activity ([1]; 24 h p.i.): 0.80 ± 0.11 % IA/g
Tumor-to-blood ratio ([1]; 24 h p.i.): 8.8 ± 0.8
Tumor-to-kidney ratio ([1]; 24 h p.i.): 2.0 ± 0.4
Tumor-to-liver ratio ([1]; 24 h p.i.): 35 ± 4
logD Values [2]: −3.9 ± 0.2 ^4

CN1c2c(nc(N)[nH]c2=O)NCC1CNc1ccc(C(=O)NC(CCC(=O)NC(CCCCNC(=O)CN2CCN(CC(=O)[O-])CCN(CC(=O)[O-])CCN(CC(=O)[O-])CC2)C(=O)NC(CCCCNC(=O)CCCc2ccc(I)cc2)C(=O)O)C(=O)O)cc1.[177Lu+3] (stereo not drawn) [[^177Lu]Lu-6S-RedFol-1]
Kd (folate receptor (FR)): 1.7 nM
Blood, accumulated activity ([1]; 1 h p.i.): 19 ± 2 % IA/g
Bone, accumulated activity ([1]; 1 h p.i.): 2.0 ± 0.2 % IA/g
Intestines, accumulated activity ([1]; 1 h p.i.): 1.8 ± 0.4 % IA/g
KB tumor, accumulated activity ([1]; 1 h p.i.): 14 ± 3 % IA/g
Kidneys, accumulated activity ([1]; 1 h p.i.): 18 ± 2 % IA/g
Liver, accumulated activity ([1]; 1 h p.i.): 2.6 ± 0.1 % IA/g
Lung, accumulated activity ([1]; 1 h p.i.): 8.5 ± 0.6 % IA/g
Muscle, accumulated activity ([1]; 1 h p.i.): 1.6 ± 0.2 % IA/g
Salivary glands, accumulated activity ([1]; 1 h p.i.): 4.0 ± 0.2 % IA/g
Spleen, accumulated activity ([1]; 1 h p.i.): 2.0 ± 0.2 % IA/g
Stomach, accumulated activity ([1]; 1 h p.i.): 1.5 ± 0.3 % IA/g
Tumor-to-blood ratio ([1]; 1 h p.i.): 0.73 ± 0.12
Tumor-to-kidney ratio ([1]; 1 h p.i.): 0.75 ± 0.09
Tumor-to-liver ratio ([1]; 1 h p.i.): 5.3 ± 1.0
Blood, accumulated activity ([1]; 4 h p.i.): 15 ± 2 % IA/g
Bone, accumulated activity ([1]; 4 h p.i.): 1.7 ± 0.2 % IA/g
Intestines, accumulated activity ([1]; 4 h p.i.): 1.9 ± 0.1 % IA/g
KB tumor, accumulated activity ([1]; 4 h p.i.): 26 ± 1 % IA/g
Kidneys, accumulated activity ([1]; 4 h p.i.): 33 ± 2 % IA/g
Liver, accumulated activity ([1]; 4 h p.i.): 2.3 ± 0.2 % IA/g
Lung, accumulated activity ([1]; 4 h p.i.): 6.7 ± 0.6 % IA/g
Muscle, accumulated activity ([1]; 4 h p.i.): 1.3 ± 0.1 % IA/g
Salivary glands, accumulated activity ([1]; 4 h p.i.): 3.5 ± 0.4 % IA/g
Spleen, accumulated activity ([1]; 4 h p.i.): 1.9 ± 0.3 % IA/g
Stomach, accumulated activity ([1]; 4 h p.i.): 1.2 ± 0.2 % IA/g
Tumor-to-blood ratio ([1]; 4 h p.i.): 1.7 ± 0.2
Tumor-to-kidney ratio ([1]; 4 h p.i.): 0.79 ± 0.07
Blood, accumulated activity ([1]; 24 h p.i.): 3.8 ± 0.9 % IA/g
Bone, accumulated activity ([1]; 24 h p.i.): 0.53 ± 0.08 % IA/g
Intestines, accumulated activity ([1]; 24 h p.i.): 0.49 ± 0.04 % IA/g
KB tumor, accumulated activity ([1]; 24 h p.i.): 46 ± 3 % IA/g
Kidneys, accumulated activity ([1]; 24 h p.i.): 69 ± 7 % IA/g
Liver, accumulated activity ([1]; 24 h p.i.): 0.81 ± 0.22 % IA/g
Lung, accumulated activity ([1]; 24 h p.i.): 2.2 ± 0.4 % IA/g
Muscle, accumulated activity ([1]; 24 h p.i.): 0.47 ± 0.15 % IA/g
Salivary glands, accumulated activity ([1]; 24 h p.i.): 1.4 ± 0.2 % IA/g
Spleen, accumulated activity ([1]; 24 h p.i.): 1.1 ± 0.2 % IA/g
Stomach, accumulated activity ([1]; 24 h p.i.): 0.51 ± 0.14 % IA/g
Tumor-to-blood ratio ([1]; 24 h p.i.): 13 ± 3
Tumor-to-kidney ratio ([1]; 24 h p.i.): 0.67 ± 0.08
Tumor-to-liver ratio ([1]; 24 h p.i.): 59 ± 13
logD Values [2]: −3.7 ± 0.1 ^4

O=C(O)CN1CCN(CC(=O)O)CCN(CC(=O)NCCC(=O)N[C@@H](CCCCNC(=O)CCCc2ccc(I)cc2)C(=O)O)CCN(CC(=O)O)CC1.[177Lu] [[^177Lu]Lu-DOTA-ALB-1]
logD value [3]: −3.15 ± 0.04
